Where two headings read alike, the source gives them in different places.
How the values were obtained:
[1] = assay type: in vitro ADME; conditions: intestinal microsomes, data not shown
Experimental: The physiological parameters for rat and human were obtained from Brown et al. ([1997]) as well as Gearhart et al. ([1990]), and are summarised in Table 1. […] The kinetic parameters for biotransformation of DZN in rat and human were obtained by conducting in vitro liver microsomal/plasma incubations as described in the section “In vitro metabolic incubations for deriving kinetic parameters”. […] The first-pass metabolism of DZN by the intestine was not taken into account in the current model because the metabolic conversion in the intestine derived from the conversion in incubations with intestinal microsomes upon scaling to the whole organ, appeared less than 5% of that obtained in a similar way for the liver (data not shown). […] To scale the in vitro Vmax values to the in vivo situation, the following scaling factors were used; 35 mg microsomal protein/g liver for rat hepatic metabolism (Medinsky et al. [1994]), 32 mg microsomal protein/g liver for human hepatic metabolism (Barter et al. [2007]), 77 mg plasma protein/ml plasma (total plasma protein concentration) for human plasma metabolism, and 60 mg plasma protein/ml plasma (total plasma protein concentration) for rat plasma metabolism. Plasma volume in rat and human were assumed as 55% of their corresponding blood volume (O'Neil [1999]). The Km values determined in vitro were assumed to be equal to in vivo Km values. […]

[2] = rat; ref JMPR 2016; cited from earlier work
brain and RBC AChE = conditions: cited from earlier work
CYP450 [3] = assay: in vitro; assay type: in vitro ADME, rat; conditions: for Km: rat
Experimental: (§1) The in vitro incubations for investigating CYP450-mediated biotransformation of DZN were performed using rat and human liver microsomes based on the method described by Sams et al. ([2004]) and Smith et al. ([2011]) with some modifications. Preliminary studies were carried out to optimize both incubation time and microsomal protein concentration, to define conditions at which metabolism was linear with respect to time and the amount of microsomal protein (data not shown) to be used for further kinetic studies. The final incubations contained 50 mM Tris–HCl (pH 7.4), 5 mM MgCl2, 1 mM EDTA (as an A-esterase PON1 inhibitor) (Bizoń and Milnerowicz [2018]), 50 µM iso-OMPA (as a B-esterases inhibitor) (Lane et al. [2006]), 1 mM NADPH, and DZN at final concentrations of 1, 2.5, 5, 10, 25, 50, 100 and 250 µM (added from 100 times concentrated stock solutions in methanol). […] Addition of esterase inhibitors EDTA and iso-OMPA has been commonly applied when studying CYP450-mediated conversion of organophosphate (OP) pesticides in liver microsomal incubations for determining kinetic parameters for their CYP450-mediated pathways (Buratti et al. [2005]; Dadson et al. [2013]; Ellison et al. [2012]; Foxenberg et al. [2007]; Poet et al. [2003]; Smith et al. [2011]). Based on previous studies, CYP450-mediated activities are not adversely affected by the addition of these inhibitors (1 mM EDTA and 50 µM iso-OMPA) to the microsomal incubations (Buratti et al. [2003]; Rasmussen [2012]). After 1 min preincubation in a 37 °C water bath, 2.5 µl of human or rat liver microsomes (final concentration 0.25 mg microsomal protein/ml) were added to initiate the reaction. The total incubation mixture was 200 µl. Control incubations were carried out by replacing NADPH with buffer. The reaction was terminated after 2.5 min by adding 200 µl ice-cold ACN. After the incubation, samples were centrifuged at 16000 g (4℃) for 5 min, and supernatants of rat samples were further diluted 2 × in a mixture of ACN and 50 mM Tris–HCl (pH 7.4) (ratio 1:1, v/v). At the end, both diluted rat sample supernatants and undiluted human sample supernatants were analysed by LC–MS/MS for quantification of metabolite formation.
The chromatographic separations were conducted on a Kinetex® 1.7 µm Phenyl-Hexyl 100 Å LC column (100 × 2.1 mm). The injection volume was 1 µl at a flow rate of 0.3 ml/min. The temperature of the column was kept at 40℃. The mobile phase A consisted of ultrapure water with 0.1% (v/v) formic acid, and mobile phase B consisted of acetonitrile (ACN) with 0.1% (v/v) formic acid. […] The instrument was used in positive mode with multiple reaction monitoring (MRM). The optimized acquisition parameters for DZN, DZO and the metabolite IMHP are listed in Supplementary data I.
The calculation was done using GraphPad Prism 5 for Windows, version 5.04 (GraphPad software, San Diego California USA).

CYP450 [4] = assay: in vitro; assay type: in vitro ADME, human; conditions: for Km: human
Experimental: as §1
The chromatographic separations were conducted on a Kinetex® 1.7 µm Phenyl-Hexyl 100 Å LC column (100 × 2.1 mm). The injection volume was 1 µl at a flow rate of 0.3 ml/min. The temperature of the column was kept at 40℃. The mobile phase A consisted of ultrapure water with 0.1% (v/v) formic acid, and mobile phase B consisted of acetonitrile (ACN) with 0.1% (v/v) formic acid. […] The instrument was used in positive mode with multiple reaction monitoring (MRM). The optimized acquisition parameters for DZN, DZO and the metabolite IMHP are listed in Supplementary data I. […]

[5] = human, cited from earlier work
natural human RBC AChE = conditions: ref Fakhri-Bafghi et al. 2016; cited from earlier work
[6] = human; ref Poklis et al. 1980; cited from earlier work
[7] = rat, ref Poet et al. 2004, cited from earlier work
CYP450 [8] = conditions: ref Kappers et al. 2001; cited from earlier work
[9] = rat versus human liver microsomes

**Q.** For `CCOP(=S)(OCC)Oc1cc(C)nc(C(C)C)n1` [DZN, O,O-diethyl O-2-isopropyl-6-methylpyrimidin-4-yl phosphorothioate], which “metabolic conversion in the intestine scaled to the whole organ, relative to that for the liver” value [1] is on record?
**A.** Its value is “less than 5%”.

**Q.** What about the “toxic dose level reported” value [2] of the same molecule?
**A.** The value was 300 mg/kg bw.

**Q.** What about the “overall NOAEL from three rat studies” value (brain and RBC AChE; EFSA, ref EFSA 2006) of the same molecule?
**A.** The value was 2.5 mg/kg bw.

**Q.** What about the “LOAEL, inhibition of brain and RBC AChE activity in female rat” value (brain and RBC AChE; JMPR, ref JMPR 2016) of the same molecule?
**A.** The value was 25 mg/kg bw.

**Q.** What about the “NOAEL, acute (neuro)toxicity study in rats” value (brain and RBC AChE; JMPR, ref JMPR 2016) of the same molecule?
**A.** Its value is 2.5 mg/kg bw.

**Q.** What about the “Reported NOAEL from EFSA and JMPR (adult rat)” value (brain and RBC AChE; ref EFSA 2006, JMPR 2016) of the same molecule?
**A.** Its value is 2.5 mg/kg bw.

**Q.** And the “Vmax DZN to DZO” value (CYP450 [3]; rat liver microsomes)?
**A.** Its value is 0.288 nmol/min/mg microsomal protein.

**Q.** What about the “Vmax DZN to IMHP” value (CYP450 [3]; rat liver microsomes) of the same molecule?
**A.** Its value is 1.098 nmol/min/mg microsomal protein.

**Q.** And the “CYP450-mediated detoxification, more efficient in rat compared to human” value (CYP450 [3]; [9])?
**A.** The value was 15 fold.

**Q.** And the “lower Km for CYP450-mediated bioactivation in rat than in human” value (CYP450 [3]; [9])?
**A.** Its value is 12.6 fold.

**Q.** What about the “lower Km for CYP450-mediated detoxification in rat than in human” value (CYP450 [3]; [9]) of the same molecule?
**A.** The value was 9.3 fold.

**Q.** What about the “unscaled catalytic efficiency of CYP450-mediated bioactivation, higher in rat than human” value (CYP450 [3]; [9]) of the same molecule?
**A.** The value was 20 fold.

**Q.** What about the Km (CYP450 [3]; pH 7.4, Km DZN to DZO, rat liver microsomes) of the same molecule?
**A.** Its Km is 4.75 µM.

**Q.** What about the Km (CYP450 [3]; pH 7.4, rat liver microsomes, read-out: Km DZN to IMHP) of the same molecule?
**A.** The Km was 1.76 µM.

**Q.** And the “Vmax DZN to DZO” value (CYP450 [4]; human liver microsomes)?
**A.** Its value is 0.187 nmol/min/mg microsomal protein.

**Q.** And the “Vmax DZN to IMHP” value (CYP450 [4]; human liver microsomes)?
**A.** The value was 0.665 nmol/min/mg microsomal protein.

**Q.** What about the Km (CYP450 [4]; pH 7.4, Km DZN to DZO, human liver microsomes) of the same molecule?
**A.** The Km was 59.6 µM.

**Q.** And the Km (CYP450 [4]; pH 7.4, human liver microsomes, read-out: Km DZN to IMHP)?
**A.** Its Km is 16.3 µM.

**Q.** What about the “fractional absorption (fa)” value ([5]; oral, ref Garfitt et al. 2002) of the same molecule?
**A.** Its value is 0.66.

**Q.** And the “first-order rate constant for absorption from the intestine into the liver (KaI)” value ([5]; ref Poet et al. 2004)?
**A.** Its value is 0.59 h⁻¹.

**Q.** And the “first-order rate constant for absorption from the stomach into the liver (KaS)” value ([5]; ref Poet et al. 2004)?
**A.** The value was 0.32 h⁻¹.

**Q.** And the “first-order rate constant for transfer from the stomach into the intestine (KsI)” value ([5]; ref Poet et al. 2004)?
**A.** The value was 0.48 h⁻¹.

**Q.** And the IC50 (natural human RBC AChE)?
**A.** The IC50 was 24.4 µM.

**Q.** And the “toxic dose level reported” value [6]?
**A.** Its value is 293 mg/kg bw.

**Q.** What about the “fractional absorption (fa)” value ([7]; oral) of the same molecule?
**A.** Its value is 0.8.

**Q.** What about the “first-order rate constant for absorption from the intestine into the liver (KaI)” value [7] of the same molecule?
**A.** Its value is 0.59 h⁻¹.

**Q.** And the “first-order rate constant for absorption from the stomach into the liver (KaS)” value [7]?
**A.** Its value is 0.1 h⁻¹.

**Q.** And the “first-order rate constant for transfer from the stomach into the intestine (KsI)” value [7]?
**A.** Its value is 0.48 h⁻¹.

**Q.** What about the “difference in DZO formation from DZN between 15 human liver samples” value (CYP450 [8]) of the same molecule?
**A.** The value was 6- to 59 fold.
